Test results reported in patent US11903917B2, “MEK-inhibitor for the treatment of viral and bacterial infections” (priority 2017, dated 2024).
pEC50: −log10 of the molar value. Values joined by “and” are separate entries in the source; they are usually repeats but may differ in a detail not shown here. Identical values can stand only once.

Experiments:
[1] = Pharmacokinetics, drug in plasma after i.v. or per os application; format: in vivo, NMRI mice
Description: Blood was collected at 15 min, 30 min, 1 h, 2 h, 4 h, 6 h, 8 h and 24 h (test day 2) after administration and plasma was analysed for the presence of the drug. […] Blood was collected at 15 min, 30 min, 1 h, 2 h, 4 h, 6 h, 8 h and 24 h (test day 2) after administration and plasma was analysed for the presence of the drug. Each data point represents the mean value of three plasma samples. Graphpad Prism 7 software was used to illustrate both figures.
34.88 mg PD-0184264 were dissolved in 0.075 ml DMSO and further diluted with 0.225 ml Cremophor EL/2.7 ml PBS. […] 81.0 mg PD-0184264 were dissolved in 0.2 ml DMSO/0.6 ml Cremophor EL/3.2 ml PBS.
Eight week old male NMRI mice (Charles River Laboratories, Germany) with a body weight of 23.9-36.5 g at administration were used for pharmacokinetic studies. The animals were normally fed. Drinking water was available ad libitum.
Experiments were performed at LPT GmbH (Hamburg, Germany). Sufficient whole blood—taken under isoflurane anaesthesia—was collected to obtain at least 2×100 μl Li-Heparin plasma of 3 animals per group and time-point at the following times: 0 (predose), 15 min, 30 min, 1 h, 2 h, 4 h, 6 h, 8 h and 24 h (test day 2) after administration. The whole blood samples were instantly cooled using an Iso-Therm-Rack system (Eppendorf AG, Germany) until centrifugation within 0.5 hours after withdrawal. Immediately after centrifugation, the samples were stored at −20° C. until further analysis. Plasma analysis was performed using standard procedures at Prolytic GmbH (Frankfurt, Germany).
Drugs were either administrated using a single dosing on test day 1 by oral gavage or by Intravenous bolus injection into a tail vein. The Injection speed was 15 s/dose with an administration volume of 200 μl.

[2] = test system: S. aureus 6850; assay: Over-night treated culture, bacterial titers (CFU/ml) and OD600; format: cell-based, Staphylococcus aureus
[3] = test system: A549 cells infected with A/Puerto Rico/8/34 (H1N1) and/or S. aureus 6850; format: cell-based
[4] = test system: S. aureus; assay: Resistance development during 17 days of constant treatment; format: cell-based, Staphylococcus aureus; conditions: 24 h cycles repeated for 17 days
[5] = test system: H1N1 pdm09; assay: Example 11: lung virus titration assay in infected mice; format: in vivo, C57BL/6 mice; conditions: for virus titer in the lung, control set to 100%: 24 h after infection
Description: (A) After H1N1 pdm09 infection female C57BL/6 mice were treated with either 2.8, 8.4 or 25 mg/kg PD-0184264 (left side) or with 25, 75 or 150 mg/Kg […] ([…]) the oral route. 24 hrs after infection the animals were killed and lung was taken to prepare a 10% suspension. Virus titer was determined using the standard method. Virus titer of mice treated with the two MEK-inhibitors were compared to virus titer of mice treated with solvent (Control) alone. Virus tier in the lungs of control mice was set to 100% (black bar). Graphpad Prism 7 software was used to illustrate both figures.
For oral application of 25 mg/kg, 2.5 mg of PD-0184264 were dissolved in 50 μl DMSO (Sigma-Aldrich, Germany) and further diluted with 0.15 ml Cremophor EL (Merck-Millipore, Germany) and 0.8 ml PBS (Gibco, Germany). For application of 8.4 mg/kg and 2.8 mg/kg, 0.84 mg or 0.28 mg PD-0184264 were dissolved with 50 μl DMSO (Sigma-Aldrich, Germany) and further diluted with 0.15 ml Cremophor EL/0.8 ml PBS.
Eight week old female C57Bl/6 mice (Charles River Laboratories, Germany) with a body weight of 21.0-24.0 g at administration were used for antiviral studies. The animals were normally fed. Drinking water was available ad libitum.
Drugs were administrated using a single dosing on test day 1 by oral gavage. The application speed was 15 s per dose with an administration volume of 200 μl.
Mice were sacrificed 24 h post infection and lungs were weighed, transferred into a Lysing Matrix D tube (MP Bio) and BSS was applied in an amount of the 10-fold volume of the lung. Organs were shredded using the FastPrep FP 120 (Savant). To remove the cell debris the homogenates were centrifuged for 15 min at 2000 rpm and the supernatant collected. The determination of virus titer in homogenates was performed using the AVICEL® plaque assay as described previously (Haasbach et al. 2011, Mastrosovich et al. 2006).

[6] = test system: influenza A virus strain RB1 [A/Regensburg/D6/09 (H1N1 pdm09)]; assay: Progeny virus inhibition assay in A549 cells; format: cell-based
[7] = test system: Bacillus subtilis; assay: Bacterial load of B. subtilis after 18 h (OD600, plating); format: cell-based
Description: Specifically, to test for a potential antibacterial effect on B. subtilis, over-night cultures of B. subtilis were incubated with either solvent or different concentrations of the MEK inhibitor PD-0184264 (as indicated) for 18 h. Afterwards, bacterial load was determined via measurement of the OD600 and plating of serial dilutions on BHI agar plates. Data shown in FIG. 11 represent means+SD of three independent experiments.

[8] = test system: S. aureus 6850; format: cell-based, Staphylococcus aureus
[9] = test system: MRSA strain S. aureus (USA300); assay: Cell-free culture bacterial growth (OD600)
Description: Bacterial growth was monitored for 360 minutes.
MRSA bacteria were incubated with different concentrations of the MEK inhibitor ranging from 0-100 μM and bacterial growth was monitored six hours after cultivation.

O=C(O)c1ccc(F)c(F)c1Nc1ccc(I)cc1Cl [PD-0184264, 2-(2-chloro-4-iodophenylamino)-N-3,4-difluoro benzoic acid]
drug in plasma at eight hours ([1]; 150 mg/kg per os application): still a high concentration
AUC ([1]; mouse, plasma, iv, male NMRI mice, route of this value not stated (75 mg/kg i.v. / 150 mg/kg per os)): 1950 µg·h/mL
reduction of bacterial growth (FIG. 4) ([2]; 10 μM, over night, S. aureus 6850): significant reduction of growth
reduction of bacterial titers ([2]; 20 μM, over night, S. aureus 6850, CFU/ml): 1.5-2 orders of a magnitude
effect on bacterial titers (CFU/ml) ([2]; over night treatment, S. aureus 6850, vs solvent): very strong reduction in bacterial load
concentration already showing reduction of the cytopathic effect ([3]; bacterial and viral co-infection, FIG. 5): 15 µM
cytopathic effect (CPE), cell monolayer disruption ([3]; increasing concentrations, 24 h, IAV (H1N1) MOI 0.001 and S. aureus 6850 MOI 0.1): reversed in a concentration dependent manner
resistance development in S. aureus [4]: did not induce resistance
virus titer in the lung, control set to 100% ([5]; 2.8 mg/kg oral): approx. 70%
virus titer in the lung, control set to 100% ([5]; 8.4 mg/kg oral): approx. 20%
virus titer in the lung, control set to 100% ([5]; 25 mg/kg oral): approx. 10%
reduction of the virus titer in the lung ([5]; 25 mg/kg, FIG. 18): at least 90%
fold lower concentration needed to achieve a similar effect as 150 mg/kg CI-1040 ([5]; oral): 6 fold
reduction of progeny virus [6]: almost no reduction
reduction of virus titer [6]: 98.87±0.03% and 91.50±2.08% and 58.97±4.45%
fold higher EC50 value compared to the EC50 value of CI-1040 ([6]; CI-1040 value from Haasbach et al. 2017): 31 fold
pEC50 ([6]; Influenza A virus, H1N1, RB1 on A549 cells, FIG. 17B): 6.09
S.I. (selectivity index) ([6]; against RB1 on A549 cells): 1960
fold higher concentration needed to achieve similar reduction of progeny influenza virus as 10 μM CI-1040 ([6]; in vitro, A549): ~10 fold
viable bacterial counts ([7]; 10 μM): strong decrease in viable bacterial counts
viable bacterial counts ([7]; concentrations higher than 10 μM): complete abolishment
intracellular bacterial titers [8]: reduced intracellular bacterial titers
bacterial growth (OD600) ([9]; 50 μM, monitored for 360 minutes, vs solvent DMSO): almost complete absent
inhibition of bacterial growth (FIG. 3) ([9]; starting at 50 μM, 6 hrs): almost complete inhibition of growth
